Reference: patent US20050203169A1, “Methods and compositions for treating diseases associated with excesses in ACE” (priority 2001, published 2005)
Read-outs that look alike come from different tables or passages of the source. Blank lines part the entries; values can stand above or below the compound they belong to.

What was measured:
[1] = system: patient with end-stage COPD; test: Outcome for patient with COPD on ramipril
serum potassium = system: serum potassium
Source text: As described above, fludrocortisone acetate ([…]) can be used to control serum K+ concentration. […] Diabetes Technology & Therapeutics. […] This can be easily achieved using […] (fludrocortisone acetate; see Table A).

[2] = system: patients with kidney failure; test: Clinical observations in patients with kidney failure; type: in vivo, human
[3] = target: ACE (hydrophobic and hydrophilic active site) (Homo sapiens, UniProt P12821); settings: cited from earlier work
circulating ACE = target: T1, circulating ACE (Homo sapiens, UniProt P12821); settings: cited from earlier work; for circulating ACE inhibited: 5 mg dose; for inhibition of enzyme activity: equal amount (5 mg)
T1 construct: from tissue; host or cells: circulation (blood, plasma or serum) of dosed subjects

[4] = system: patients with CRF (serum creatinine of at least 2 mg/dl); test: Time to Dialysis in patients with chronic renal failure; type: in vivo, human; settings: conventional Rx <40 mg/d
Method: Outcomes data for patients with CRF due to hypertension, determined as Time to Dialysis, for patients with serum creatinine of at least 2 mg/dl at the first clinic visit:
The following are the expected differences in outcomes for patients with CRF due to NIDDM, determined as Time to Dialysis, for patients with serum creatinine of at least 2 mg/dl at the first clinic visit:
The following are the expected differences in outcomes for patients with ADPKD, determined as Time to Dialysis, for patients with serum creatinine of at least 2 mg/di at the fist clinic visit.

[5] = system: patients on ACE inhibitors; settings: cited from earlier work
[6] = system: blood pressure (index of maximum tissue ACE inhibition); settings: rats, IV; cited from earlier work
[7] = compared with ramipril; cited from earlier work
hemodialysis patients = test: Ramipril in hemodialysis patients with ESRD due to hypertension; type: in vivo, human; settings: 5 mg/day; two black hemodialysis patients
new cases of NIDDM = settings: HOPE study (NEJM Jan. 21, 2000); cited from earlier work

T1 sequence (P12821 30-1232 limits assumed): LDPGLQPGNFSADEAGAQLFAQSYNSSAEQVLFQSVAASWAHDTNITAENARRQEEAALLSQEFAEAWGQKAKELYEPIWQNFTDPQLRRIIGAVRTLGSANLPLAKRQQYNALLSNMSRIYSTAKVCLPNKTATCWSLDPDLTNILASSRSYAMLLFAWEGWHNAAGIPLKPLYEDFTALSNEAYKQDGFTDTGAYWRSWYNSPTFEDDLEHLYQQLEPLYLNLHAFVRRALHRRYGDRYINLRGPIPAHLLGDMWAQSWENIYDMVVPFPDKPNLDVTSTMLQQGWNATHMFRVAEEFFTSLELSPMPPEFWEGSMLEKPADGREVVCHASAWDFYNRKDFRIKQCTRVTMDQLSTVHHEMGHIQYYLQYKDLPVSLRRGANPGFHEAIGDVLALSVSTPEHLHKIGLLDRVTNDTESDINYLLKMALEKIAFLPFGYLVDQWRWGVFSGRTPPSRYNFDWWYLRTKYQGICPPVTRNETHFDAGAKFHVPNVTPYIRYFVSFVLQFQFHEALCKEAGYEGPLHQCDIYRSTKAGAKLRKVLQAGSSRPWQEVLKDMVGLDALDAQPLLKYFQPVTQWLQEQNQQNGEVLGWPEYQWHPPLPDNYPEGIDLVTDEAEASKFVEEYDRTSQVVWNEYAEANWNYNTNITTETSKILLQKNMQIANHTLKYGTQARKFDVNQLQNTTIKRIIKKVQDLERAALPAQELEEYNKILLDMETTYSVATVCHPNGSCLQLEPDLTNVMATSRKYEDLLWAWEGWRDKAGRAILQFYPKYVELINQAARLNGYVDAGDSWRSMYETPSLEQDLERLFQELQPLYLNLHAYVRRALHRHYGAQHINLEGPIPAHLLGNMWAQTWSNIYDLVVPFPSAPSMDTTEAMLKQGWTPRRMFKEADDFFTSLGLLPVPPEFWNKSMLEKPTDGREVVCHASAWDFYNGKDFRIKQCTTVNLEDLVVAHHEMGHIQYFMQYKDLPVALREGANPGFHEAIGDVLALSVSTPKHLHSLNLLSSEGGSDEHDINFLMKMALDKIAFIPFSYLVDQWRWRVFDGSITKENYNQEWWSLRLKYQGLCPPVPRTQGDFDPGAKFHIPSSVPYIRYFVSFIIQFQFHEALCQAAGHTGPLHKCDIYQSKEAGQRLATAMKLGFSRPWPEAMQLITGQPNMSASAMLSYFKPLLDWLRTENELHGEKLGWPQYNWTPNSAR
ACE (hydrophobic and hydrophilic active site), sequence (P12821 30-1306): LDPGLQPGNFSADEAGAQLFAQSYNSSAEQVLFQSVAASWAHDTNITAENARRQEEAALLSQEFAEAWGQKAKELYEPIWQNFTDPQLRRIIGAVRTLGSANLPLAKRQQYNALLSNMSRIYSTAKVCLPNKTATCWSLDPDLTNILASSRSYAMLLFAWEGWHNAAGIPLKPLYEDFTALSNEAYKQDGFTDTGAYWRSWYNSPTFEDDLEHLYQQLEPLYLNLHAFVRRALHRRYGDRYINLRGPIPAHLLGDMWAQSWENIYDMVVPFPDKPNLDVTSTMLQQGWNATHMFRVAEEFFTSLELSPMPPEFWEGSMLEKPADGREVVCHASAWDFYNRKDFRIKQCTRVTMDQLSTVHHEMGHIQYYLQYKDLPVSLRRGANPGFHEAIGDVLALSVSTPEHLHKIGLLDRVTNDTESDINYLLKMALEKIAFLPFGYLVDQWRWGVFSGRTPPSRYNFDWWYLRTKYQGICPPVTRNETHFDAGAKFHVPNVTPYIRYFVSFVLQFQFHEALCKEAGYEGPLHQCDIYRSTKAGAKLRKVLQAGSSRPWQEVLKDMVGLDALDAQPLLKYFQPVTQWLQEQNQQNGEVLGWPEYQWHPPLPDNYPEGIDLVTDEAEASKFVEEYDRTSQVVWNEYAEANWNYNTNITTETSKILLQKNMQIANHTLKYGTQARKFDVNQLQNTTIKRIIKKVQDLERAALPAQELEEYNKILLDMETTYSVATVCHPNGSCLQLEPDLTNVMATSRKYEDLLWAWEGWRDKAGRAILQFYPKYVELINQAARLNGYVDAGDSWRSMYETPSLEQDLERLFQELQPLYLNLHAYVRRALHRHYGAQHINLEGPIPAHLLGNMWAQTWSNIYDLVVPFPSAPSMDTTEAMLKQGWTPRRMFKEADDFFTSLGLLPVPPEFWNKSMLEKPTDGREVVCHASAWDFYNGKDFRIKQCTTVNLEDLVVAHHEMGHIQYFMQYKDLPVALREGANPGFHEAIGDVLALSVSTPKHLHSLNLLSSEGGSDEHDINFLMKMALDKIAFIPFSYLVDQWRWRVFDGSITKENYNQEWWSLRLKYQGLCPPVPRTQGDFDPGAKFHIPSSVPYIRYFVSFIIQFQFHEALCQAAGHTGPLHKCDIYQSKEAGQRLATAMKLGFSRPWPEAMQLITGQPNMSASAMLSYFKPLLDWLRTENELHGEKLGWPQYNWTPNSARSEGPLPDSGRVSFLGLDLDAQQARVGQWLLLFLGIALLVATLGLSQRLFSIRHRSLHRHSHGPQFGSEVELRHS

SMILES: CCOC(=O)C1=C(COCCN)NC(C)=C(C(=O)OC)C1c1ccccc1Cl (stereo not drawn) [Amlodipine]
adverse event when added for BP control ([1]; COPD patient on ramipril): Developed CHF

SMILES: CC(=O)OCC(=O)[C@@]1(O)CC[C@H]2[C@@H]3CCC4=CC(=O)CC[C@]4(C)[C@@]3(F)[C@@H](O)C[C@@]21C [Florinef, fludrocortisone acetate]
volume (fluid) retention (serum potassium; in vivo): # retention and congestive heart failure. Clinical observation indicates that volume retention occurs with daily FLORINEF but not with less-than-daily use, even up to five times a week.
serum potassium under adequate control (serum potassium; same daily dose despite higher dose of ACE inhibitor): below 5.3 mEq/l
control of serum potassium (serum potassium; up to 0.1 mg daily, chronic renal failure patients on high dose ACE inhibitor (e.g. 2 mg/kg/day quinapril)): could control serum potassium

SMILES: CCCCc1nc(Cl)c(CO)n1Cc1ccc(-c2ccccc2-c2nn[nH]n2)cc1 [Losartan]
benefit when added to QUINAPRIL ([2]; 50 mg/day, patients with kidney failure): no added benefit
effect on serum potassium (serum potassium; combined with an ACE inhibitor): elevation of serum potassium

SMILES: CCOC(=O)[C@H](CCc1ccccc1)N[C@@H](C)C(=O)N1CCC[C@H]1C(=O)O [enalapril]
off-rate t(1/2) ([3]; hydrophilic site in the circulating form of the enzyme): ~4 h
circulating ACE inhibited (circulating ACE): 47%
inhibition of enzyme activity (circulating ACE): 50%

SMILES: CCOC(=O)[C@H](CCc1ccccc1)N[C@@H](C)C(=O)N1Cc2ccccc2C[C@H]1C(=O)O [quinapril]
off-rate t(1/2) ([3]; hydrophobic active site): ~24 h
Time to Dialysis ([4]; ADPKD, Caucasian men): 8.8 yr
Time to Dialysis ([4]; CRF due to NIDDM, African American men): 3.3 yr
Time to Dialysis ([4]; CRF due to NIDDM, Caucasian men): 2.7 yr
Time to Dialysis ([4]; CRF due to hypertension, African American men): 3.6 yr
Time to Dialysis ([4]; CRF due to hypertension, Caucasian men): 4.3 yr
dose-toxicity curve ([5]; from 5 mg/day to 80 mg/day): flat
patients with elevation of mood ([5]; use by 12,000 patients): 20%
dose at which maximum blood pressure lowering occurred [6]: 3 mg/kg
serum creatinine on treatment ([2]; Patient, 20 mg/day given hs, decreased from 4.5): 1.7 mg/di
slowing down kidney failure ([2]; comparison of quinapril with ramipril): superior to RAMIPRIL
octanol: water partition coefficient [7]: higher

serum glucose (hemodialysis patients): 40 mg/dL
serum potassium (hemodialysis patients): above 6 mEq/l
SMILES: CCOC(=O)[C@H](CCc1ccccc1)N[C@@H](C)C(=O)N1[C@H](C(=O)O)C[C@@H]2CCC[C@@H]21 [ramipril]
off-rate t(1/2) ([3]; hydrophobic active site): ~24 h
circulating ACE inhibited (circulating ACE): 97%
inhibition of enzyme activity (circulating ACE): greater than 95%
new cases of NIDDM (new cases of NIDDM): prevention of new cases of NIDDM
FEV1 ([1]; 8/99, baseline 0.87 L): 0.83 L
BP ([1]; currently on 600 mg/d): 135/80
effect on pulmonary hypertension ([1]; emphysema (COPD)): appears to lower pulmonary hypertension
non-fluid weight gain ([1]; human, in vivo): 25 lb.
hospitalization ([1]; period of over five years): Hospitalized for CHF but not for COPD
BP ([1]; two weeks after start of 2.5 mg/d, first seen with BP 104/60): 180/110
